Patent US20140243335A1, “SUBSTITUTED HYDOXAMIC ACIDS AND USES THEREOF” (Millennium Pharmaceuticals, Inc., priority 2010, published 2014)

Molecular target: T1, purified human HDAC6 (Homo sapiens, UniProt Q9UBN7)
T1 construct: purchased BPS Bioscience 5006
T1 sequence (Q9UBN7 1-1215): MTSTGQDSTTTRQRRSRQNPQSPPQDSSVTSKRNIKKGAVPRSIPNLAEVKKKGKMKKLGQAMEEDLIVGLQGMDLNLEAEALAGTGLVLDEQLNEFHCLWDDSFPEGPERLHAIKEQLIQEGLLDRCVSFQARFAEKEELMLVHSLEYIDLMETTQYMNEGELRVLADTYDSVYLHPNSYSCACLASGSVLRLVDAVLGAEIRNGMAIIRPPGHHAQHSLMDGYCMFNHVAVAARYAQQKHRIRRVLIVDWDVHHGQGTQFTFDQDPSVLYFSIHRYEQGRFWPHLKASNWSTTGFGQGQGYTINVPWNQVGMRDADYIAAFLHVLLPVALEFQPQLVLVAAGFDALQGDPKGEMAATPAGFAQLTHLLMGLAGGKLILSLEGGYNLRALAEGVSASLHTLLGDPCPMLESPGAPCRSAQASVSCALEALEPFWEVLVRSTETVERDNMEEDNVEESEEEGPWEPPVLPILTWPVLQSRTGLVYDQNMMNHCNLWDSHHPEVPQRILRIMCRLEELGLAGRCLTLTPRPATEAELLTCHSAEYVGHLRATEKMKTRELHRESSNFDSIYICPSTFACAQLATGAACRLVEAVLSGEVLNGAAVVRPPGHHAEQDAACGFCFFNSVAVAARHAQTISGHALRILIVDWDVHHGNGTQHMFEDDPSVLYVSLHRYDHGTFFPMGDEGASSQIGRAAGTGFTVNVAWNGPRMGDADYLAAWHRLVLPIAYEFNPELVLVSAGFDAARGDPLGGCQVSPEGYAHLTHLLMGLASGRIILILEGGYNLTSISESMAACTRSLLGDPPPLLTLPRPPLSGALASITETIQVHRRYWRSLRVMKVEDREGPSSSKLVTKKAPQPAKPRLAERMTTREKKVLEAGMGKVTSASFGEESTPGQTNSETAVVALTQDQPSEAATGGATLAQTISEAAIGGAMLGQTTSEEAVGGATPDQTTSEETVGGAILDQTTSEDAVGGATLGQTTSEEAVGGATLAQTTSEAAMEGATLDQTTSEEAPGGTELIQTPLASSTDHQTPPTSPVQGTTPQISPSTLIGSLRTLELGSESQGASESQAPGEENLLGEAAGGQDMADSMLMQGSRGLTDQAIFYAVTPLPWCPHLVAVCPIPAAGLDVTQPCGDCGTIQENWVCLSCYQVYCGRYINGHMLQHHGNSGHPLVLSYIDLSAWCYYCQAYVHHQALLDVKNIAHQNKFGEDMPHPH
Assay: HDAC6 Enzyme Assay
Type: biochemical
Settings: HDAC6 inhibition at a compound concentration of 0.412 μM; read-out: Percent Inhibition at 0.412 μM
Procedure: To measure the inhibition of HDAC6 activity, purified human HDAC6 (BPS Bioscience; Cat. No. 5006) is incubated with substrate Ac-Arg-Gly-Lys(Ac)-AMC peptide (Bachem Biosciences; Cat. No. I-1925) for 1 hour at 30° C. in the presence of test compounds or vehicle DMSO control. The reaction is stopped with the HDAC inhibitor trichostatin A (Sigma; Cat. No. T8552) and the amount of Arg-Gly-Lys-AMC generated is quantitated by digestion with trypsin (Sigma; Cat. No. T1426) and subsequent measurement of the amount of AMC released using a fluorescent plate reader (Pherastar; BMG Technologies) set at Ex 340 nm and Em 460 nm. Concentration response curves are generated by calculating the fluorescence increase in test compound-treated samples relative to DMSO-treated controls, and enzyme inhibition (IC50) values are determined from those curves.

For O=C(NO)c1ccc2c(c1)CC(NS(=O)(=O)c1ccccc1)CC2 (centres unmarked) [Compound I-96, N-hydroxy-7-[(phenylsulfonyl)amino]-5,6,7,8-tetrahydronaphthalene-2-carboxamide], which inhibition at 0.412 µM is on record?
The inhibition at 0.412 µM was 92%.

With O=C(NO)c1ccc2c(c1)CC(Oc1ccc(Cl)cc1)CC2 (centres unmarked) [Compound I-91, 7-(4-chlorophenoxy)-N-hydroxy-5,6,7,8-tetrahydronaphthalene-2-carboxamide] as the molecule, how does the inhibition at 0.412 µM read?
Its inhibition at 0.412 µM is 93%.

For CN(C)Cc1cc(C(=O)NC2CCc3cc(C(=O)NO)ccc3C2)cc(C(F)(F)F)c1 (centres unmarked) [Compound I-171, 6-{[3-[(dimethylamino)methyl]-5-(trifluoromethyl)benzoyl]amino}-N-hydroxy-5,6,7,8-tetrahydronaphthalene-2-carboxamide], which inhibition at 0.412 µM is on record?
Its inhibition at 0.412 µM is 77%.

For O=C(NO)c1ccc2c(c1)CCC(NC(=O)c1csc3ccccc13)C2 (centres unmarked) [Compound I-52, N-{6-[(hydroxyamino)carbonyl]-1,2,3,4-tetrahydronaphthalen-2-yl}-1-benzothiophene-3-carboxamide], which inhibition at 0.412 µM is on record?
Its inhibition at 0.412 µM is 80%.

Which inhibition at 0.412 µM does the source give for CC(C)(C)C(=O)N[C@H]1CCc2ccc(C(=O)NO)cc2C1 [Compound I-75, (7S)-7-[(2,2-dimethylpropanoyl)amino]-N-hydroxy-5,6,7,8-tetrahydronaphthalene-2-carboxamide] here?
Its inhibition at 0.412 µM is 90%.

Which inhibition at 0.412 µM does the source give for COc1ccccc1-c1cc(C(=O)N[C@H]2CCCc3cc(C(=O)NO)ccc32)[nH]n1 [Compound I-68, N-{(1S)-6-[(hydroxyamino)carbonyl]-1,2,3,4-tetrahydronaphthalen-1-yl}-3-(2-methoxyphenyl)-1H-pyrazole-5-carboxamide] here?
The inhibition at 0.412 µM was 65%.

How did the inhibition at 0.412 µM turn out when O=C(NO)c1ccc2c(c1)CCC(NCc1ccc(Cl)cc1)C2 (centres unmarked) [Compound I-106, 6-[(4-chlorobenzyl)amino]-N-hydroxy-5,6,7,8-tetrahydronaphthalene-2-carboxamide] was run?
The inhibition at 0.412 µM was 90%.

For O=C(NO)c1ccc2c(c1)C1CCC2N1C(=O)c1ccccn1 (centres unmarked) [Compound I-210, N-hydroxy-9-(pyridin-2-ylcarbonyl)-1,2,3,4-tetrahydro-1,4-epiminonaphthalene-6-carboxamide], which inhibition at 0.412 µM is on record?
Its inhibition at 0.412 µM is 28%.

With O=C(NO)c1ccc2c(c1)CCCC2NC(=O)c1cnc2ccccc2n1 (centres unmarked) [Compound I-9, N-{6-[(hydroxyamino)carbonyl]-1,2,3,4-tetrahydronaphthalen-1-yl}quinoxaline-2-carboxamide] as the molecule, how does the inhibition at 0.412 µM read?
Its inhibition at 0.412 µM is 47%.

Which inhibition at 0.412 µM does the source give for O=C(NO)c1ccc2c(c1)CC(c1ccc(Cl)cc1)CC2 (centres unmarked) [Compound I-90, 7-(4-chlorophenyl)-N-hydroxy-5,6,7,8-tetrahydronaphthalene-2-carboxamide] here?
Its inhibition at 0.412 µM is 82%.

With O=C(NO)c1ccc2c(c1)CCC(c1ccccc1)C2 (centres unmarked) [Compound I-100, N-hydroxy-6-phenyl-5,6,7,8-tetrahydronaphthalene-2-carboxamide] as the molecule, how does the inhibition at 0.412 µM read?
The inhibition at 0.412 µM was 62%.

With CC(C)(C)C(=O)N[C@@H]1CCc2ccc(C(=O)NO)cc2C1 [Compound I-73, (7R)-7-[(2,2-dimethylpropanoyl)amino]-N-hydroxy-5,6,7,8-tetrahydronaphthalene-2-carboxamide] as the molecule, how does the inhibition at 0.412 µM read?
The inhibition at 0.412 µM was 73%.

With O=C(NO)c1ccc2c(c1)CC(NCCc1ccccc1)CC2 (centres unmarked) [Compound I-81, N-hydroxy-7-[(2-phenylethyl)amino]-5,6,7,8-tetrahydronaphthalene-2-carboxamide] as the molecule, how does the inhibition at 0.412 µM read?
Its inhibition at 0.412 µM is 84%.

With Cc1nc2ccccn2c1C(=O)NC1CCc2cc(C(=O)NO)ccc2C1 (centres unmarked) [Compound I-55, N-{6-[(hydroxyamino)carbonyl]-1,2,3,4-tetrahydronaphthalen-2-yl}-2-methylimidazo[1,2-a]pyridine-3-carboxamide] as the molecule, how does the inhibition at 0.412 µM read?
The inhibition at 0.412 µM was 78%.

O=C(NO)c1ccc2c(c1)CCCC2NC(=O)c1ccc2ncsc2c1 (centres unmarked) [Compound I-28, N-{6-[(hydroxyamino)carbonyl]-1,2,3,4-tetrahydronaphthalen-1-yl}-1,3-benzothiazole-6-carboxamide] was tested. Which inhibition at 0.412 µM did it give?
Its inhibition at 0.412 µM is -2%.

Cc1ccc2[nH]c(C(=O)NC3CCCc4cc(C(=O)NO)ccc43)cc2c1 (centres unmarked) [Compound I-39, N-{6-[(hydroxyamino)carbonyl]-1,2,3,4-tetrahydronaphthalen-1-yl}-5-methyl-1H-indole-2-carboxamide] was tested. Which inhibition at 0.412 µM did it give?
The inhibition at 0.412 µM was 60%.

COc1cccc(C2CCc3cc(C(=O)NO)ccc3C2)c1 (centres unmarked) [Compound I-110, N-hydroxy-6-(3-methoxyphenyl)-5,6,7,8-tetrahydronaphthalene-2-carboxamide] was tested. Which inhibition at 0.412 µM did it give?
Its inhibition at 0.412 µM is 42%.

Which inhibition at 0.412 µM does the source give for O=C(NO)c1ccc2c(c1)C1CCC2N1C(=O)Cc1ccccc1 (centres unmarked) [Compound I-211, N-hydroxy-9-(phenylacetyl)-1,2,3,4-tetrahydro-1,4-epiminonaphthalene-6-carboxamide] here?
Its inhibition at 0.412 µM is 51%.

How did the inhibition at 0.412 µM turn out when CC(C)C(C(=O)NC1CCCc2cc(C(=O)NO)ccc21)c1ccccc1 (centres unmarked) [Compound I-31, N-hydroxy-5-[(3-methyl-2-phenylbutanoyl)amino]-5,6,7,8-tetrahydronaphthalene-2-carboxamide] was run?
The inhibition at 0.412 µM was 17%.

How did the inhibition at 0.412 µM turn out when O=C(NO)c1ccc2c(c1)CCCC2NC(=O)c1cc(C(F)(F)F)cc(C(F)(F)F)c1 (centres unmarked) [Compound I-12, 5-{[3,5-bis(trifluoromethyl)benzoyl]amino}-N-hydroxy-5,6,7,8-tetrahydronaphthalene-2-carboxamide] was run?
Its inhibition at 0.412 µM is 15%.

Which inhibition at 0.412 µM does the source give for O=C(NO)c1ccc2c(c1)CCCC2NC(=O)C12CC3CC(CC(C3)C1)C2 (centres unmarked) [Compound I-21, N-{6-[(hydroxyamino)carbonyl]-1,2,3,4-tetrahydronaphthalen-1-yl}adamantane-1-carboxamide] here?
The inhibition at 0.412 µM was 20%.

For O=C(NO)c1ccc2c(c1)CCCC2NC(=O)c1ccc(-c2ccccc2)cc1 (centres unmarked) [Compound I-34, N-{6-[(hydroxyamino)carbonyl]-1,2,3,4-tetrahydronaphthalen-1-yl}biphenyl-4-carboxamide], which inhibition at 0.412 µM is on record?
The inhibition at 0.412 µM was 2%.

Cn1cc(-c2cc(C(=O)NC3CCc4ccc(C(=O)NO)cc4C3)cc(C(F)(F)F)c2)cn1 (centres unmarked) [Compound I-79, N-hydroxy-7-{[3-(1-methyl-1H-pyrazol-4-yl)-5-(trifluoromethyl)benzoyl]amino}-5,6,7,8-tetrahydronaphthalene-2-carboxamide] was tested. Which inhibition at 0.412 µM did it give?
The inhibition at 0.412 µM was 94%.

With O=C(NO)c1ccc2c(c1)CCCC2NC(=O)c1sc2ccccc2c1Cl (centres unmarked) [Compound I-32, 3-chloro-N-{6-[(hydroxyamino)carbonyl]-1,2,3,4-tetrahydronaphthalen-1-yl}-1-benzothiophene-2-carboxamide] as the molecule, how does the inhibition at 0.412 µM read?
Its inhibition at 0.412 µM is 69%.

How did the inhibition at 0.412 µM turn out when O=C(NO)c1ccc2c(c1)CCC[C@@H]2NC(=O)c1cc(-c2ccc(F)cc2)n[nH]1 [Compound I-71, 3-(4-fluorophenyl)-N-{(1S)-6-[(hydroxyamino)carbonyl]-1,2,3,4-tetrahydronaphthalen-1-yl}-1H-pyrazole-5-carboxamide] was run?
Its inhibition at 0.412 µM is 60%.

For CC(C)(Oc1ccccc1Cl)C(=O)N[C@H]1CCCc2cc(C(=O)NO)ccc21 [Compound I-69, (5S)-5-{[2-(2-chlorophenoxy)-2-methylpropanoyl]amino}-N-hydroxy-5,6,7,8-tetrahydronaphthalene-2-carboxamide], which inhibition at 0.412 µM is on record?
The inhibition at 0.412 µM was 44%.

For COc1ccc(C(=O)NC2CCc3ccc(C(=O)NO)cc3C2)cc1 (centres unmarked) [Compound I-77, N-hydroxy-7-[(4-methoxybenzoyl)amino]-5,6,7,8-tetrahydronaphthalene-2-carboxamide], which inhibition at 0.412 µM is on record?
The inhibition at 0.412 µM was 92%.

For O=C(NO)c1ccc2c(c1)CC(Nc1ccc(Cl)cc1)CC2 (centres unmarked) [Compound I-83, 7-[(4-chlorophenyl)amino]-N-hydroxy-5,6,7,8-tetrahydronaphthalene-2-carboxamide], which inhibition at 0.412 µM is on record?
The inhibition at 0.412 µM was 86%.

With O=C(NO)c1ccc2c(c1)CCC(OCc1ccc(Cl)cc1)C2 (centres unmarked) [Compound I-125, 6-[(4-chlorobenzyl)oxy]-N-hydroxy-5,6,7,8-tetrahydronaphthalene-2-carboxamide] as the molecule, how does the inhibition at 0.412 µM read?
Its inhibition at 0.412 µM is 87%.
